Data: US10280174B2, “Salt of fused pyrimidine compound and crystal thereof” (TAIHO PHARMACEUTICAL CO., LTD., priority 2015, dated 2019)

What was measured:
[1] = Solid stability test (acceleration test), 40° C./75% RH; assay type: physicochemical; settings: for total mass of analogous substance: 4 weeks
Method: Solid stability was measured under the following conditions, with respect to monofumarate of Compound A, hemifumarate of Compound A, hemitartrate of Compound A and monophosphate of Compound A which were obtained in the Examples and the Reference Examples, when they were stored for 2 weeks or 4 weeks at 40° C./75% RH (sealed condition and opened condition).
Storage condition: 40° C./75% RH (Sealed and Opened) (Opened refers to a condition where a glass container has the lid removed, and is covered with a KimWipe).
Points of measurement: 2 weeks and 4 weeks
Storage amount: About 30 mg
Storage container: Brown glass container
Method of preparing sample solution: Sample was dissolved in 50% acetonitrile such that a concentration of the sample would be 0.4 mg/mL.
Mass of analogous substance in the sample solution was measured by HPLC analysis. Handling of the devices including data processing was based on the method and the process indicated in each device. (Device: Shimadzu Corporation SIL-HTc/LC-20AB)
Column: InertSustein C18, 4.6×150 mm, 3 μm, manufactured by GL Sciences Inc.
MS detection: ESI positive
Column temperature: 40° C.
Column flow rate: 1.0 mL/min
Mobile phase: A; 10 mmol/L phosphate buffer (pH 6.0): Acetonitrile mixed solution (17:3), B; Acetonitrile
Amount of injection: 5 μL
In the Table, A, B and C refer to percentages of the total mass of analogous substance of less than 0.1%, 0.1% or more and less than 0.5%, and 0.5% or more, respectively. Incidentally, those marked with * were measured at 2 weeks' time and the others were measured at 4 weeks' time.

[2] = target: recombinant human BTK protein (Homo sapiens (Human), UniProt Q06187); assay: Measurement of BTK inhibitory activity (in vitro); assay type: biochemical; settings: ATP 45 μM, FL-Peptide 2 substrate
Sequence of recombinant human BTK protein (Q06187 whole entry): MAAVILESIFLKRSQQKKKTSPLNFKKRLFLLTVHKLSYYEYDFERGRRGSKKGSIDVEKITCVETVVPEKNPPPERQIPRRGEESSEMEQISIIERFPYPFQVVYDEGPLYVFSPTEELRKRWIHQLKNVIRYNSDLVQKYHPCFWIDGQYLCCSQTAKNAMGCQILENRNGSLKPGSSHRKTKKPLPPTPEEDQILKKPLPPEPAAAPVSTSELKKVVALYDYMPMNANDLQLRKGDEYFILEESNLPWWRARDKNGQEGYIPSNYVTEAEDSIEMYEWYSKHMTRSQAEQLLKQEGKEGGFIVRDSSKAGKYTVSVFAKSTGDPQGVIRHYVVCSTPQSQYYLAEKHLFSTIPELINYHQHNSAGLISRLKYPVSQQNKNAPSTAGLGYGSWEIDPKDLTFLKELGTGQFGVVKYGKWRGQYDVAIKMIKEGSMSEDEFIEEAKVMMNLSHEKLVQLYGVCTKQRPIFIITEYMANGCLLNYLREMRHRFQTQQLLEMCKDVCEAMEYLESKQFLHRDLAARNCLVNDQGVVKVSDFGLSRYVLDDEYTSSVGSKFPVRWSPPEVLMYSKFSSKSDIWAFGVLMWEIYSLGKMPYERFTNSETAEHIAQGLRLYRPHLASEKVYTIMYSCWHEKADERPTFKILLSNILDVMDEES
Source text: In a condition set for a method of measuring inhibitory activity in vitro of the compounds against BTK kinase activity, FL-Peptide 2 was used as a substrate, since it was described in a price list of LabChip (Registered trademark) series sample consumables of PerkinElmer Co., Ltd. that FL-Peptide 2 corresponded to a substrate peptide in a measurement of BTK kinase activity. The refined recombinant human BTK protein used in the test was purchased from Carna Biosciences, Inc.
With regard to the measurement of the inhibitory activity of the compounds, firstly, monofumarate of Compound A was diluted stepwise with dimethyl sulfoxide (DMSO). Subsequently, BTK protein, a substrate peptide (final concentration was 1 μM), magnesium chloride (final concentration was 10 mM), ATP (final concentration was 45 μM), and a DMSO solution of the test compounds (final concentration of DMSO was 5%) were added to a buffer solution for kinase reaction (20 mM HEPES (pH 7.5), 2 mM dithiotheitol, 0.01% Triton X-100), and after the solution was incubated for 40 minutes at 25° C., a kinase reaction was carried out. […] Finally, a substrate peptide that was not phosphorylated (S) and a phosphorylated peptide (P) were separated and detected by microchannel capillary electrophoresis with a LabChip EZ Reader II (PerkinElmer, Inc.). […]

[3] = test system: recombinant human EGFR protein / BTK; assay: BTK inhibition selectivity compared with EGFR kinase inhibitory activity (in vitro); assay type: biochemical
Method: 1) Measurement of BTK Inhibitory Activity
2) Measurement of EGFR Inhibitory Activity
Therefore, a biotinated peptide (biotin-[…]) was produced by referring to the amino acid sequence of the peptide. The purified recombinant human EGFR protein used in the test was purchased from Carna Biosciences, Inc.
The reaction was terminated by adding EDTA thereto so as to obtain a final concentration of 24 mM. Subsequently, a detection liquid containing Eu-labeled anti-phosphotyrosine antibody PT66 (PerkinElmer, Inc.) and […] APC-SA (PerkinElmer, Inc.) was added thereto, and the system was left to stand for 2 hours or longer at room temperature. […] 3) BTK Inhibition Selectivity

[4] = test system: mouse collagen-induced arthritis model; assay: Mice collagen-induced arthritis model; assay type: in vivo, DBA/1 mice; settings: 0.381 mg/kg, oral, 1 time per day, 17 days; FIG. 11
Method: The test was carried out in accordance with the method described in Non-Patent Literature (Brand D D, et al., Nat Protoc. 2007; 2, 1269-1275, Xu D. et al., JPET, 2012 April; 341 (1):90-103). Seven-week-old male/DBA/1 mice (CHARLES RIVER LABORATORIES JAPAN, INC.) were intracutaneously injected in the dorsum with 100 μL/body of an equal amount-mixed solution (emulsion) of 4 mg/mL of bovine type 2 collagen solution (Collagen Research Center) and Complete Freund's Adjuvant (DIFCO Inc.) (initial immunization). After 21 days therefrom, the mice were intracutaneously injected in the chine with 100 μL/body of an equal amount-mixed solution (emulsion) of 4 mg/mL of bovine type 2 collagen solution (Collagen Research Center) and Complete Freund's Adjuvant (DIFCO) to provide an additional immunization. The oral administration of 1 time per day was continued for 17 days setting the administration initiation day (day 0) as the eighth day from the additional immunization. Symptoms of arthritis in day 0, day 3, day 7, day 10, day 14 and day 17 were scored macroscopically (0: No change, 1: Swelling of a finger, 2: Swelling of two fingers or more, 3: Swelling of instep, 4: Swelling of all fingers extending wrist/ankle), and a total in four limbs was obtained as a point of individual body (maximum 16 points).

C=CC(=O)N1CCC[C@@H](n2nc(C(=O)Nc3nc4ccccc4o3)c3c(N)ncnc32)C1.O=C(O)/C=C/C(=O)O [monofumarate of Compound A, (R)-1-(1-acryloylpiperidin-3-yl)-4-amino-N-(benzo[d]oxazol-2-yl)-1H-pyrazolo[3,4-d]pyrimidine-3-carboxamide.monofumarate]
total mass of analogous substance ([1]; Opened): A (less than 0.1%)
total mass of analogous substance ([1]; Sealed): A (less than 0.1%)
solid stability (in words) ([1]; compared to hemitartrate or monophosphate): excellent solid stabilities
IC50 [2]: 1.19 nM
BTK inhibition selectivity against EGFR kinase relative to Comparative compound 1 ([3]; in vitro kinase): about 13 times
EGFR inhibitory activity IC50 value (nM)/BTK inhibitory activity IC50 value (nM) ([3]; selectivity ratio): 16.90
arthritis score [4]: lowered the arthritis score effectively
